Series [1] can be described thus: Cytotoxicity in HepG 2.2.15 cells (MTT assay, nine days). Particulars: human, after nine days, read-out: CC50 (50% cytotoxicity concentration). It is filed as cell-based, human. As to the method:
(§1) These synthesized compounds were evaluated for anti-HBV activity with referring to reported method. The HepG2.2.15 cell, a human hepatoblastoma cell line stably transfected with cloned HBV DNA, was obtained from Chinese Academy of Medical Sciences (Beijing, China), and was cultured in Dulbecco’s Modified Eagle’s Medium (DMEM) supplemented with 10% fetal bovine serum and 1.5 g/L of sodium bicarbonate, 10 mL/L of streptomycin, 10 mL/L of penicillin, and 200 mg/L of G418 at 37 °C in a 5% CO2 atmosphere with 95–98% humidity. Then, HepG2.2.15 cell was plated at a density of 1 × 10^5 cells/mL in 96-well plates and incubated at 37 °C for 24 h and then treated with variant concentration of compounds in […]; every three days, in a nine day period, C (OD) values were recorded at 450 nm. After nine days, the percent of cell death was measured using the method of MTT assay after drug treatment. Cytotoxicity of these compounds was expressed as the concentration of compound required to kill 50% (CC50) of the HepG 2.2.15 cells.
A general note: Tetrazolium dyes change colour on reduction, which living cells bring about.

Another series relates to HBsAg. Kind of series: cells. Particulars: for HBsAg SI (selectivity index = CC50/IC50): CC50/IC50 for HBsAg. The method, then: as §1
(§2) Method for the HBsAg and HBeAg Inhibition Assays. The levels of HBV surface antigen (HBsAg) and HBV e antigen (HBeAg) in the supernatant of the HepG2.2.15 cells were determined by the enzyme-linked immunosorbent assay (ELISA) according to the manufacturer’s protocol (Shanghai Kehua Biotech Co., Ltd., Shanghai, China). The synthesized compounds were expressed as the concentration that achieved 50% inhibition (IC50) to the secretion of HBsAg and HBeAg. The selectivity index (SI) was determined as the ratio of CC50 to IC50 which a major pharmaceutical parameter of estimates possible future clinical application.

A further series relates to HBeAg. Kind of series: cells. Particulars: for HBeAg SI (selectivity index = CC50/IC50): CC50/IC50 for HBeAg. As to the method: as §1, §2
Another series has as its system HepG 2.2.15 cells. The series can be described thus: Cytotoxicity in HepG 2.2.15 cells (MTT assay, nine days). It is filed as cell-based, human. Particulars: after nine days, read-out: CC50 (50% cytotoxicity concentration). As to the method: as §1
The mark [2] stands for this setting: Hepatitis B virus, HepG2.2.15, read-out: HBsAg IC50.
Setting [3] is: Hepatitis B virus, HepG2.2.15, read-out: HBeAg IC50.
Where [4] appears, read: read-out: HBsAg IC50, secretion of HBsAg, HepG 2.2.15 cells, mean ± S.E.M., n = 3.
Setting [5] is: read-out: HBeAg IC50, secretion of HBeAg, HepG 2.2.15 cells, mean ± S.E.M., n = 3.

Read-outs that look alike come from different tables or passages of the source.

With `Nc1ccn([C@@H]2CS[C@H](CO)O2)c(=O)n1` [Compound 3TC, Lamivudine, reference compound], in series [1], the CC50 at 9 days was 516 µM.

As a reminder, the IC50 is the concentration at which inhibition is half-maximal. `O=C(CC/C(=N\O)c1ccccc1)OC1CCCCC1` [Compound 4A-1, Cyclohexyl (E)-4-hydroxyimino-4-phenylbutanoate]: in series [1], the CC50 at 9 days came to 528 µM. Besides, the “HBsAg SI (selectivity index = CC50/IC50)” value in the series on HBsAg (HepG 2.2.15 cells) stood at 1.04. Also, the IC50 in the series with HBsAg (setting [2]) worked out at 506 ± 28.6 µM; in the series on HBeAg (setting [3]) it was 375 ± 36.2 µM. For the same molecule, the “HBeAg SI (selectivity index = CC50/IC50)” value with HBeAg (HepG 2.2.15 cells) was found to be 1.41.

Take `CO/N=C(\CCC(=O)OC1CCCCC1)c1ccccc1` [Compound 4A-2, Cyclohexyl (E)-4-methoxyimino-4-phenylbutanoate]: the CC50 at 9 days in series [1] turned out to be 660 µM. Also, the “HBsAg SI (selectivity index = CC50/IC50)” value with HBsAg (HepG 2.2.15 cells) was 6.03. The 50% inhibitory concentration (IC50) was found to be 109 ± 16.1 µM in the series on HBsAg (setting [2]) and 119 ± 13.2 µM in the series with HBeAg (setting [3]). Besides, in the series on HBeAg (HepG 2.2.15 cells), the “HBeAg SI (selectivity index = CC50/IC50)” value is 5.55.

Turning to `O=C(CC/C(=N\OCc1ccccc1)c1ccccc1)OC1CCCCC1` [Compound 4A-3, Cyclohexyl (E)-4-benzyloxyimino-4-phenylbutanoate], in series [1], the CC50 at 9 days was determined as 974 µM. Besides, in the series with HBsAg (HepG 2.2.15 cells), the “HBsAg SI (selectivity index = CC50/IC50)” value is reported as 8.58. Further, the figures for the IC50 in the series with HBsAg (setting [2]) and in the series with HBeAg (setting [3]) were 114 ± 6.15 µM and 129 ± 13.6 µM, respectively. Besides, in the series on HBeAg (HepG 2.2.15 cells), the “HBeAg SI (selectivity index = CC50/IC50)” value was found to be 7.53.

Consider `Cc1ccc(/C(CCC(=O)OC2CCCCC2)=N/O)cc1` [Compound 4B-1, Cyclohexyl (E)-4-hydroxyimino-4-(4-methylphenyl)butanoate], for which the CC50 at 9 days in series [1] was found to be 444 µM. Further, in the series with HBsAg (HepG 2.2.15 cells), the “HBsAg SI (selectivity index = CC50/IC50)” value is recorded as 1.72. Moreover, the results for the half-maximal inhibitory concentration (IC50) with HBsAg (setting [2]) and in the series on HBeAg (setting [3]) were 257 ± 16.5 µM and 284 ± 26.7 µM, respectively. Besides, in the series on HBeAg (HepG 2.2.15 cells), the “HBeAg SI (selectivity index = CC50/IC50)” value came to 1.56.

`Cc1ccc(/C(CCC(=O)OC2CCCCC2)=N/OCc2ccccc2)cc1` [Compound 4B-3, Cyclohexyl (E)-4-benzyloxyimino-4-(4-methylphenyl)butanoate]: in series [1], the CC50 at 9 days came to 860 µM. For the same molecule, in the series on HBsAg (HepG 2.2.15 cells), the “HBsAg SI (selectivity index = CC50/IC50)” value was 10.95. The IC50 in the series with HBsAg (setting [2]) was found to be 78.5 ± 9.87 µM; in the series on HBeAg (setting [3]), 84.6 ± 6.6 µM. The “HBeAg SI (selectivity index = CC50/IC50)” value in the series with HBeAg (HepG 2.2.15 cells) was 10.16.

Regarding `COc1ccc(/C(CCC(=O)OC2CCCCC2)=N/O)cc1` [Compound 4C-1, Cyclohexyl (E)-4-hydroxyimino-4-(4-methoxyphenyl)butanoate], in series [1], the CC50 at 9 days stood at 481 µM. In addition, the “HBsAg SI (selectivity index = CC50/IC50)” value with HBsAg (HepG 2.2.15 cells) is reported as 0.98. Besides, the figures for the IC50 in the series with HBsAg (setting [2]) and in the series on HBeAg (setting [3]) were 489 ± 11.2 µM and 405 ± 4.8 µM, respectively. In the series on HBeAg (HepG 2.2.15 cells), the “HBeAg SI (selectivity index = CC50/IC50)” value is reported as 1.19.

For the molecule `CO/N=C(\CCC(=O)OC1CCCCC1)c1ccc(OC)cc1` [Compound 4C-2, Cyclohexyl (E)-4-methoxyimino-4-(4-methoxyphenyl)butanoate], the CC50 at 9 days in series [1] is 630 µM. The “HBsAg SI (selectivity index = CC50/IC50)” value in the series with HBsAg (HepG 2.2.15 cells) is on record as 5.94. The IC50 in the series with HBsAg (setting [2]) was 106 ± 8.67 µM; in the series with HBeAg (setting [3]), 128 ± 34.6 µM. Also, the “HBeAg SI (selectivity index = CC50/IC50)” value in the series on HBeAg (HepG 2.2.15 cells) worked out at 4.92.

For `COc1ccc(/C(CCC(=O)OC2CCCCC2)=N/OCc2ccccc2)cc1` [Compound 4C-3, Cyclohexyl (E)-4-benzyloxyimino-4-(4-methoxyphenyl)butanoate], the CC50 at 9 days in series [1] came to 678 µM. The “HBsAg SI (selectivity index = CC50/IC50)” value with HBsAg (HepG 2.2.15 cells) is 6.08. Moreover, the IC50 in the series with HBsAg (setting [2]) is 112 ± 7.25 µM; in the series on HBeAg (setting [3]) it was 130 ± 21.5 µM. The “HBeAg SI (selectivity index = CC50/IC50)” value with HBeAg (HepG 2.2.15 cells) was 5.20.

On to `CO/N=C(\CCC(=O)OC1CCCCC1)c1ccc(Cl)cc1` [Compound 4D-2, Cyclohexyl (E)-4-methoxyimino-4-(4-chlorophenyl)butanoate], for which the CC50 at 9 days in series [1] is 581 µM. Also, the “HBsAg SI (selectivity index = CC50/IC50)” value in the series on HBsAg (HepG 2.2.15 cells) is recorded as 8.59. Besides, the IC50 in the series on HBsAg (setting [2]) came to 67.7 ± 8.81 µM; in the series with HBeAg (setting [3]) it was 85.1 ± 11.9 µM. Besides, in the series on HBeAg (HepG 2.2.15 cells), the “HBeAg SI (selectivity index = CC50/IC50)” value is 6.83.

In the case of `O=C(CC/C(=N\OCc1ccccc1)c1ccc(Cl)cc1)OC1CCCCC1` [Compound 4D-3, Cyclohexyl (E)-4-benzyloxyimino-4-(4-chlorophenyl)butanoate], the CC50 at 9 days in series [1] is 604 µM. Moreover, the “HBsAg SI (selectivity index = CC50/IC50)” value in the series with HBsAg (HepG 2.2.15 cells) turned out to be 6.53. Further, the figures for the IC50 with HBsAg (setting [2]) and in the series on HBeAg (setting [3]) were 92.6 ± 4.94 µM and 96.8 ± 5.13 µM, respectively. For the same molecule, in the series with HBeAg (HepG 2.2.15 cells), the “HBeAg SI (selectivity index = CC50/IC50)” value was found to be 6.25.

Consider “Cyclohexyl (E)-4-hydroxyimino-4-(4-chlorophenyl)butanimidate [Compound 4D-1]”, for which the CC50 in the series on HepG 2.2.15 cells worked out at 396 µM. Also, the IC50 was 352 ± 11 µM with HBsAg (setting [4]) and 373 ± 16.9 µM with HBeAg (setting [5]).

Turning to “Cyclohexyl (E)-4-methoxyimino-4-(4-methoxyphenyl)butanoate [Compound 4B-2]”, the CC50 in the series on HepG 2.2.15 cells was 856 µM. The values for the IC50 in the series on HBsAg (setting [4]) and in the series with HBeAg (setting [5]) were 63.9 ± 6.26 µM and 49.4 ± 4.17 µM, respectively.
